Measured values taken from publication PMC7482817 (Theranostics, 2020).

Experiments:
E. coli B2 (mcr-1) [1] = assay: Broth microdilution MIC and checkerboard assay; type: cell-based, Escherichia coli; conditions: for MIC of antibiotic in the absence of melatonin: antibiotic alone, MHB; for Potentiation (fold): degree of colistin potentiation in the presence of sub-MIC of melatonin and its analogues: colistin plus sub-MIC of the analogue
E. coli B2 (mcr-1) [2] = assay: Mouse peritonitis-sepsis infection model; type: in vivo, BALB/c mice; conditions: single i.p. dose 1 h post-infection: colistin 10 mg/kg, melatonin 50 mg/kg, or combinations 5 + 50, 10 + 20, 10 + 50 mg/kg; 7 days; n = 8 or 9
Procedure: 6-8-week-old female BALB/c mice were obtained from Comparative Medicine Centre of Yangzhou University (Jiangsu, China). Mice were adapted for one week prior to infection. Mouse studies were performed in accordance with the relevant guidelines and regulations (ID: SCXK-2017-0007). The laboratory animal usage license number is SCXK-2017-0044, certified by Jiangsu Association for Science and Technology.
Female BALB/c mice (n = 8 or 9 per group) were intraperitoneally infected with a dose of 3.0 × 10^8 CFUs E. coli B2 suspension. […] Survival rates of mice were recorded for 7 days.

HEK293T cells = assay: Cytotoxicity, WST-1 assay; type: cell-based, Human; conditions: colistin 0 to 128 μg/mL with melatonin 0 to 1,000 μg/mL, 24 h
Procedure: (§3) Cytotoxicity on CHO and HEK293T cells was determined using the water-soluble tetrazolium salt-1 (WST-1, Roche, Switzerland) assay [35].

[3] = system: thirteen clinical colistin-resistant E. coli from elk
E. coli B2 [4] = assay: H2O2 production (Hydrogen Peroxide Assay Kit); type: cell-based, Escherichia coli; conditions: melatonin in single or combination treatment with colistin; 1 h
Procedure: (§1) 2′,7′-dichlorodihydrofluorescein diacetate (DCFH-DA, 10 μM) was applied to monitor levels of ROS in E. coli B2 [38], following the manufacturer's instruction (Beyotime). Fluorescence intensity was measured with the excitation wavelength of 488 nm and emission wavelength of 525 nm. […] After incubation for one hour, the absorbance of lysis buffer at 570 nm was measured.

E. coli = assay: Colistin intracellular accumulation by LC-MS/MS; type: cell-based, Escherichia coli; conditions: co-incubation with varying doses of melatonin
E. coli B2 [5] = assay: Intracellular SOD activity; conditions: colistin with or without melatonin 500 μg/mL, or melatonin alone
E. coli B2 (mcr-1) [6] = assay: Time-dependent killing; type: cell-based, Escherichia coli; conditions: melatonin 1 mg/mL or colistin 2 μg/mL alone, 24 h
Procedure: Overnight E. coli B2 were diluted 1/1,000 in MHB, and incubated for 4 h (exponential phase) or 8 h (stationary phase) at 37 °C. […] At intervals, 100 μL aliquots were removed, centrifuged and resuspended in 100 μL sterile PBS. Subsequently, ten-fold serially diluted suspensions were plated on MHA plates and incubated overnight at 37 °C. Bacterial colonies were counted and the primary CFUs/mL was calculated.

resistant bacteria = assay: Potentiation of colistin, summary over resistant strains; type: cell-based; conditions: in resistant bacteria
CHO cells = assay: Cytotoxicity, WST-1 assay; type: cell-based, Chinese Hamster; conditions: colistin 0 to 128 μg/mL with melatonin 0 to 1,000 μg/mL, 24 h
Procedure: as §3

[7] = system: mcr-1 expression in E. coli B2; type: cell-based, Escherichia coli; conditions: melatonin with or without colistin
E. coli B2 [8] = assay: Total ROS (DCFH-DA); type: cell-based, Escherichia coli; conditions: 1 h, colistin with or without melatonin 500 μg/mL, or melatonin alone
Procedure: (§2) Pretreatments of biochemical assays were performed using similar protocols as follows. Overnight E. coli B2 were washed, suspended in 5 mM HEPES (pH 7.0, plus 5 mM glucose) with an OD600 of 0.5, and incubated with fluorescent dyes for 30 min. […] After incubation at 37 °C for 1 hour, fluorescence intensity or absorbance or luminescence was measured by an Infinite M200 Microplate reader (Tecan).
as §1

E. coli B2 (mcr-1) [9] = assay: Membrane depolarization (DiSC3(5)); type: cell-based, Escherichia coli; conditions: melatonin 0 to 1,000 μg/mL alone, or 500 μg/mL added to colistin; 1 h
Procedure: as §2
3, 3-dipropylthiadicarbocyanine iodide (DiSC3(5), 0.5 μM) was applied to determine the membrane potential. Dissipated membrane potential of E. coli B2 was measured with the excitation wavelength of 622 nm and emission wavelength of 670 nm.

E. coli CP131 (mcr-3) = assay: Broth microdilution MIC and checkerboard assay; type: cell-based, Escherichia coli
E. coli G92 (mcr-1) = assay: Broth microdilution MIC and checkerboard assay; type: cell-based, Escherichia coli
E. coli G6 = assay: Broth microdilution MIC and checkerboard assay; type: cell-based, Escherichia coli
S. enterica ATCC 13076 = assay: Broth microdilution MIC and checkerboard assay; type: cell-based
[10] = system: K. pneumoniae D120 (mcr-8); assay: Broth microdilution MIC and checkerboard assay; type: cell-based
E. coli C3 = assay: Broth microdilution MIC and checkerboard assay; type: cell-based, Escherichia coli
E. coli ATCC 25922 = assay: Broth microdilution MIC and checkerboard assay; type: cell-based, Escherichia coli
E. coli MG1655 = assay: Broth microdilution MIC and checkerboard assay; type: cell-based, Escherichia coli
E. coli MG1655 (ΔkatE) = assay: Broth microdilution MIC and checkerboard assay
[11] = antibiotic plus sub-MIC melatonin
[12] = antibiotic with melatonin, checkerboard, two biological replicates
[13] = melatonin or analogue with colistin, checkerboard 8 × 8, 18 h, means of two biological replicates, synergy FIC index ≤ 0.5

## CC1(C)S[C@@H]2[C@H](NC(=O)[C@H](N)c3ccccc3)C(=O)N2[C@H]1C(=O)O [Ampicillin]
E. coli B2 (mcr-1) [1]; 18 h, 37 °C
  MIC of antibiotic in the absence of melatonin: 128 µg/mL
E. coli B2 (mcr-1) [1]; [11]
  MIC of antibiotic in the presence of sub-MIC of melatonin: 128 µg/mL
E. coli B2 (mcr-1) [1]; [12]
  FIC index: 2

## NCCc1c[nH]c2ccc(O)cc12 [Analogue 1, Serotonin]
E. coli B2 (mcr-1) [1]
  Potentiation (fold): degree of colistin potentiation in the presence of sub-MIC of melatonin and its analogues: 8 fold
E. coli B2 (mcr-1) [1]; [13]
  FIC index: 0.188

## NCCc1c[nH]c2ccccc12 [Analogue 2, Tryptamine]
E. coli B2 (mcr-1) [1]
  Potentiation (fold): degree of colistin potentiation in the presence of sub-MIC of melatonin and its analogues: 32 fold
E. coli B2 (mcr-1) [1]; [13]
  FIC index: 0.156

## N[C@@H](Cc1c[nH]c2ccc(O)cc12)C(=O)O [Analogue 3, 5-Hydroxy-L-tryptophan]
E. coli B2 (mcr-1) [1]
  Potentiation (fold): degree of colistin potentiation in the presence of sub-MIC of melatonin and its analogues: 2 fold
E. coli B2 (mcr-1) [1]; [13]
  FIC index: 1

## N[C@@H](Cc1c[nH]c2ccccc12)C(=O)O [Analogue 4, L-tryptophan]
E. coli B2 (mcr-1) [1]
  Potentiation (fold): degree of colistin potentiation in the presence of sub-MIC of melatonin and its analogues: 1 fold
E. coli B2 (mcr-1) [1]; [13]
  FIC index: 2

## CC(=O)NCCc1c[nH]c2ccc(O)cc12 [Analogue 5, N-acetyl-5-hydroxytryptamine]
E. coli B2 (mcr-1) [1]
  Potentiation (fold): degree of colistin potentiation in the presence of sub-MIC of melatonin and its analogues: 32 fold
E. coli B2 (mcr-1) [1]; [13]
  FIC index: 0.094

## COc1ccc2[nH]cc(CCN)c2c1 [Analogue 6, 5-Methoxytryptamine]
E. coli B2 (mcr-1) [1]
  Potentiation (fold): degree of colistin potentiation in the presence of sub-MIC of melatonin and its analogues: 32 fold
E. coli B2 (mcr-1) [1]; [13]
  FIC index: 0.156

## c1ccc2[nH]ccc2c1 [Analogue 7, Indole]
E. coli B2 (mcr-1) [1]
  Potentiation (fold): degree of colistin potentiation in the presence of sub-MIC of melatonin and its analogues: 8 fold

## NCCc1c[nH]cn1 [Analogue 8, Histamine]
E. coli B2 (mcr-1) [1]; [13]
  FIC index: >4

## C[C@H]1c2cccc(O)c2C(=O)C2=C(O)[C@]3(O)C(=O)C(C(N)=O)=C(O)[C@@H](N(C)C)[C@@H]3[C@@H](O)[C@@H]21 [Doxycycline]
E. coli B2 (mcr-1) [1]; 18 h, 37 °C
  MIC of antibiotic in the absence of melatonin: 32 µg/mL
E. coli B2 (mcr-1) [1]; [11]
  MIC of antibiotic in the presence of sub-MIC of melatonin: 4 µg/mL
  Potentiation (fold): degree of antibiotics potentiation in the presence of sub-MIC of melatonin: 8 fold
E. coli B2 (mcr-1) [1]; [12]
  FIC index: 0.250

## COc1ccc2[nH]cc(CCNC(C)=O)c2c1 [Melatonin, N-acetyl-5-methoxytryptamine]
E. coli B2 (mcr-1) [2]
  survival of mice after lethal infection: did not prevent a lethal infection
HEK293T cells
  effect of melatonin on cytotoxicity of colistin: slightly reduced the cytotoxicity of colistin
[3]
  synergistic activity with colistin: synergistic activity was also evidenced
E. coli B2 [4]
  production of H2O2: significantly promoted production of H2O2 in a dose-dependent manner
E. coli
  intracellular colistin accumulation: enhanced colistin in cells in a dose-dependent manner
E. coli B2 [5]
  SOD activity: had no direct effect on the total ROS level and SOD activity
E. coli B2 (mcr-1) [6]
  killing of exponentially growing or stationary E. coli B2 by monotreatment: neither melatonin nor colistin monotreatment killed
Resistant bacteria
  potentiation with colistin: 8 to 32 fold
CHO cells
  effect of melatonin on cytotoxicity of colistin: slightly reduced the cytotoxicity of colistin
[7]
  mcr-1 expression: down-regulated in the presence of melatonin
E. coli B2 [8]
  total ROS level: had no direct effect on the total ROS level and SOD activity
E. coli B2 (mcr-1) [9]
  cytoplasmic membrane potential (DiSC3(5)): caused dissipation of the cytoplasmic membrane potential

## C[C@@H](O)[C@H]1C(=O)N2C(C(=O)O)=C(S[C@@H]3CN[C@H](C(=O)N(C)C)C3)[C@H](C)[C@H]12 [Meropenem]
E. coli B2 (mcr-1) [1]; 18 h, 37 °C
  MIC of antibiotic in the absence of melatonin: 32 µg/mL
E. coli B2 (mcr-1) [1]; [11]
  MIC of antibiotic in the presence of sub-MIC of melatonin: 32 µg/mL
E. coli B2 (mcr-1) [1]; [12]
  FIC index: 2

## CO[C@H]1/C=C/O[C@@]2(C)Oc3c(C)c(O)c4c(O)c(c(/C=N/N5CCN(C)CC5)c(O)c4c3C2=O)NC(=O)/C(C)=C\C=C\[C@H](C)[C@H](O)[C@@H](C)[C@@H](O)[C@@H](C)[C@H](OC(C)=O)[C@@H]1C [Rifampicin]
E. coli B2 (mcr-1) [1]; 18 h, 37 °C
  MIC of antibiotic in the absence of melatonin: 128 µg/mL
E. coli B2 (mcr-1) [1]; [11]
  MIC of antibiotic in the presence of sub-MIC of melatonin: 128 µg/mL
E. coli B2 (mcr-1) [1]; [12]
  FIC index: 2

## Colistin
E. coli B2 (mcr-1) [2]
  survival of mice after lethal infection: did not prevent a lethal infection
E. coli CP131 (mcr-3)
  MIC of colistin in the presence of sub-MIC of melatonin: 0.5 µg/mL
E. coli CP131 (mcr-3); MCR-positive
  MIC of colistin in the absence of melatonin: 4 µg/mL
E. coli G92 (mcr-1)
  MIC of colistin in the presence of sub-MIC of melatonin: 0.5 µg/mL
E. coli G92 (mcr-1); MCR-positive
  MIC of colistin in the absence of melatonin: 4 µg/mL
E. coli B2 (mcr-1) [1]; 18 h, 37 °C
  MIC of antibiotic in the absence of melatonin: 8 µg/mL
E. coli B2 (mcr-1) [1]; [11]
  MIC of antibiotic in the presence of sub-MIC of melatonin: 0.25 µg/mL
E. coli B2 (mcr-1) [1]; colistin alone, broth micro-dilution in MHB, 18 h, 37 °C
  MIC^a of colistin in the absence of melatonin and its analogues: 8 μg/mL
E. coli G6; E. coli G6
  MIC of colistin in the presence of sub-MIC of melatonin: 0.0156 µg/mL
E. coli G6; E. coli G6, MCR-negative
  MIC of colistin in the absence of melatonin: 0.125 µg/mL
S. enterica ATCC 13076; S. enterica ATCC 13076
  MIC of colistin in the presence of sub-MIC of melatonin: 0.0156 µg/mL
S. enterica ATCC 13076; S. enterica ATCC 13076, MCR-negative
  MIC of colistin in the absence of melatonin: 0.125 µg/mL
[10]
  MIC of colistin in the presence of sub-MIC of melatonin: 0.5 µg/mL
[10]; MCR-positive
  MIC of colistin in the absence of melatonin: 4 µg/mL
E. coli C3; E. coli C3
  MIC of colistin in the presence of sub-MIC of melatonin: 0.0312 µg/mL
E. coli C3; E. coli C3, MCR-negative
  MIC of colistin in the absence of melatonin: 0.125 µg/mL
E. coli B2 (mcr-1) [6]
  killing of exponentially growing or stationary E. coli B2 by monotreatment: neither melatonin nor colistin monotreatment killed
E. coli ATCC 25922; E. coli ATCC 25922
  MIC of colistin in the presence of sub-MIC of melatonin: 0.125 µg/mL
E. coli ATCC 25922; E. coli ATCC 25922, MCR-negative
  MIC of colistin in the absence of melatonin: 0.5 µg/mL
E. coli MG1655; E. coli MG1655
  MIC of colistin in the presence of sub-MIC of melatonin: 0.0156 µg/mL
E. coli MG1655; E. coli MG1655, MCR-negative
  MIC of colistin in the absence of melatonin: 0.0625 µg/mL
E. coli MG1655 (ΔkatE)
  MIC of colistin in the presence of sub-MIC of melatonin: 0.0078 µg/mL
